Test results published in patent US9273043B2, “TRPV1 antagonists including dihydroxy substituent and uses thereof” (Purdue Pharma L.P., priority 2011, dated 2016).

Key:
human TRPV1 [1] = molecular target: T1, human TRPV1 (Homo sapiens (Human), UniProt Q8NER1); test: Capsaicin-based assay, Protocol 2, TRPV1/CHO cells (hCAP-CHO), Fluo-4 FLIPR; type: cell-based; settings: 100 nM capsaicin, mean ± SEM
Description: The TRPV1/CHO cell line was generated as described below. […] The resulting PCR products were purified from agarose gels using Gel Band Purification Kit (GE Healthcare Bioscience) and were subcloned into pCR-Blunt vector (Invitrogen). The cloned cDNA was fully sequenced using a fluorescent dye-terminator reagent (BigDye Terminator ver3.1 Cycle Sequencing Kit, Applied Biosystems) and ABI Prism 3100 genetic analyzer (Applied Biosystems). The pCR-Blunt vector containing the hTRPV1 cDNA was subjected to restriction digestion with EcoR1. The restriction fragment was subcloned into expression vector pcDNA3.1(-) (Invitrogen) and named pcDNA3.1(-)-hVR1 plasmid. The sequence of the cDNA encoding TRPV1 is available at GenBank accession number AJ277028. […] The cells were transfected with the pcDNA3.1(-)-hVR1 plasmid using FuGENE6 (Roche) according to the manufacturer's protocol. 24 hr after transfection, neomycin-resistant cells were selected using 1 mg/mL G418 (Nacalai Tesque). […] The cells expressing hTRPV1 were cultured in the growth medium supplemented with 1 mg/mL G418. […] Capsaicin-based Assay: […] Subsequently, the cells were loaded by incubation in 0.1 mL of wash buffer containing Fluo-4 at 3 μM final concentration. After 1 hour, the cells were washed twice with 0.2 mL wash buffer and resuspended in 0.1 mL wash buffer. The plates were then transferred to a Fluorescence Imaging Plate Reader (Molecular Devices). Fluorescence intensity was monitored for 15 seconds to establish a baseline. […] The final concentration of the compound was adjusted to range from 100 μM to 1.5625 μM. […] Data were collected over the entire time course and analyzed using Excel and the curve-fitting formula GraphPad Prism.

human TRPV1 [2] = molecular target: T1, human TRPV1; test: pH-based assay, Protocol 2, TRPV1/CHO cells (hpH-CHO), Fura-2 Ca2+ influx; type: cell-based; settings: pH 5.0-5.1 (H2SO4), mean ± SEM
Experimental: For Protocol 2, a Chinese Hamster Ovary cell line (CHO) that has been engineered to constitutively express human recombinant TRPV1 was used (TRPV1/CHO cells). The TRPV1/CHO cell line was generated as described below.
TRPV1/CHO cells were seeded in the 96-well clear-bottom black-wall plate (Nunc) at densities of 1-2×10^4 cells/well and grown in 100 μL of culture medium (alpha-MEM supplemented with 10% FBS, 20 mM HEPES, 1 mg/mL geneticin and 1% antibiotic-antimycotic mixed stock solution) for 1-2 days before the experiment.
(1) Culture medium was removed using an 8-channel-pipette (Rainin, USA) from the 96-well plate and the wells were refilled with 100 μL of loading buffer (20 mM HEPES, 115 mM NaCl, 5.4 mM KCl, 0.8 mM MgCl2, 1.8 mM CaCl2, 13.8 mM D-glucose, 2.5 mM probenecid, pH 7.4) containing 5 μM Fura-2 AM (Dojin, Japan).
(2) The 96-well plate was incubated at 37° C. for 45 min.
(3) The loading buffer was removed from each well. The cells were subsequently washed twice with 150 μL of measuring buffer (20 mM HEPES, 115 mM NaCl, 5.4 mM KCl, 0.8 mM MgCl2, 5.0 mM CaCl2, 13.8 mM D-glucose, 0.1% BSA, pH 7.4) (no probenecid). The wells were then refilled with 80 μL of measuring buffer.
(4) After an incubation at 4° C. for 15 min, the 96-well plate was transferred to a model FDSS-3000 plate reader apparatus (Hamamatsu Photonics K.K., Japan).
(5) The Fura-2 fluorescent intensity was monitored at a wavelength of 340 nm and at 380 nm, respectively, at a rate of 0.5 Hz for a total of 240 seconds. After 16 time points (32 sec) of baseline detection, 20 μL of agonist solution was added to each well. The final volume was 100 μL/well.
(6) Fluorescence intensity ratio refers to the fluorescence intensity at 340 nm over the fluorescence intensity at 380 nm at a particular time point. The baseline was set as the average of the fluorescent intensity ratios for the first 16 time points before the addition of agonist solution. The maximum response was the highest fluorescent intensity ratio during the 60 time points following addition of agonist solution.
(7) Maximal signal ratios from each well were calculated as output data using the FDSS-3000 analysis program. Data were analyzed using Excel (Microsoft) and XLfit (idbs) software.
In an “agonist plate,” two different agonist solutions with different H2SO4 concentrations were used for the pH assay (see, e.g., FIG. 3A of U.S. Patent Application Publication No. US 2009/0170868 A1). For the first half of a 96-well plate one agonist solution was used; for the second half the other agonist solution was used. The agonist solutions were obtained by diluting sulfuric acid (1M H2SO4) with measuring buffer. The concentrations for the two agonist solutions were determined as described above in Section 2 of Protocol 2.
The sulfuric acid concentrations between the two agonist solutions differed by 0.5 mM. In the experiment described in Section 2 of Protocol 2, the sulfuric acid concentrations in the agonist solutions were determined to be 16 mM and 16.5 mM, respectively. After 1:4 dilution of the agonist solutions, the final sulfuric acid concentration was 3.2 mM and 3.3 mM, respectively. The resulting pH value for the pH assay was 5.0 to 5.1.
Test compounds were dissolved in DMSO to yield 1 mM stock solutions. The stock solutions were further diluted using DMSO in […] serial dilution steps with 6 points (1000, 250, 62.5, 15.625, 3.9062, and 0.977 μM). The thereby-obtained solutions were further diluted in measuring buffer (1:100) as 10× stock serial dilutions with a DMSO concentration of 1%. 10 μL of a 10× stock was added into each well of an “antagonist plate” (see step 3.3.(4) below). Thus, the final concentrations of antagonists was as follows: 0.977, 3.906, 15.63, 62.5, 250, and 1000 nM containing 0.1% DMSO (see, e.g., FIG. 3B of U.S. Patent Application Publication No. US 2009/0170868 A1).
Steps (1) and (2) of this Assay were the same as steps 2.2.(1) and 2.2.(2), respectively, of Protocol 2. […]

T1 sequence (Q8NER1 whole entry, looked up, the tested form may be a part): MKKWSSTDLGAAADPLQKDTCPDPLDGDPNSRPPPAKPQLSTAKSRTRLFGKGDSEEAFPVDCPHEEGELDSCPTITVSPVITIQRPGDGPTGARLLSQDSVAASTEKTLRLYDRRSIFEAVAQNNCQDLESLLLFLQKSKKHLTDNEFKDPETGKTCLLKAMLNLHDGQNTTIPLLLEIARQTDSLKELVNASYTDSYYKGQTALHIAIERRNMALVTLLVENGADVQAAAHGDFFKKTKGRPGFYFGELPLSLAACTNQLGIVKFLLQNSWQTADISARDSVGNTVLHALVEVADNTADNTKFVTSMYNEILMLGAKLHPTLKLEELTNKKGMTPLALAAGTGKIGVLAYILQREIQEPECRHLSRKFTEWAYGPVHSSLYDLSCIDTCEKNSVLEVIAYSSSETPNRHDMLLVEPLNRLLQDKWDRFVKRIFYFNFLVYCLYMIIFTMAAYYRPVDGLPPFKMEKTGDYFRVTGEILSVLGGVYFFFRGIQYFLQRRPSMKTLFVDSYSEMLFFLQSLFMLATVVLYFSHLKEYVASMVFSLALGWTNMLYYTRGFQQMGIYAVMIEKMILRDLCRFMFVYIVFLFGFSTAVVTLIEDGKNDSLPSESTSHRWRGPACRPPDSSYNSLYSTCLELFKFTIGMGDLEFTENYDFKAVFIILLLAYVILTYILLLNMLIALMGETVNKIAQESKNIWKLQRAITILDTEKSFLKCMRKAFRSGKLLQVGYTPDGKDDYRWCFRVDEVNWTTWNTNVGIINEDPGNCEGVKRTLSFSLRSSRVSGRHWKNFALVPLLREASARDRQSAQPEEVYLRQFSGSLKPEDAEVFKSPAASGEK

Structure (SMILES) | IC50 (human TRPV1 [1]) | IC50 (human TRPV1 [2])
C[C@@H]1CN(C(=O)Nc2nc3cc(F)c(F)cc3s2)CCN1c1ncc([C@@H](O)[C@@H](C)O)cc1F [B158(o), (R)—N-(5,6-difluorobenzo[d]thiazol-2-yl)-4-{5-[(1R,2R)-1,2-dihydroxypropyl]-3-fluoropyridin-2-yl}-3-methylpiperazine-1-carboxamide] | 146 ± 52 nM | 171 ± 29 nM
C[C@@H]1CN(C(=O)Nc2nc3ccc(F)cc3s2)CCN1c1ncc([C@@H](O)[C@@H](C)O)cc1F [B125(o), (R)-4-{5-[(1R,2R)-1,2-dihydroxypropyl]-3-fluoropyridin-2-yl}-N-(6-fluorobenzo[d]thiazol-2-yl)-3-methylpiperazine-1-carboxamide] | 309 ± 105 nM | 398 ± 152 nM
C[C@@H]1CN(C(=O)Nc2nc3ccccc3s2)CCN1c1ncc([C@@H](O)[C@@H](C)O)cc1F [B122(o), (R)—N-(benzo[d]thiazol-2-yl)-4-{5-[(1R,2R)-1,2-dihydroxypropyl]-3-fluoropyridin-2-yl}-3-methylpiperazine-1-carboxamide] | 199 ± 38 nM | 6880 nM
C[C@@H]1CN(C(=O)Nc2nc3ccccc3s2)CCN1c1ncc([C@H](O)CO)cc1F [A122(b), (R)—N-(benzo[d]thiazol-2-yl)-4-(5-((S)-1,2-dihydroxyethyl)-3-fluoropyridin-2-yl)-3-methylpiperazine-1-carboxamide] | 444 ± 79 nM | 670 ± 94 nM
C[C@@H]1CN(c2ncc([C@@H](O)CO)cc2F)CCN1C(=O)Nc1nc2ccc(Cl)cc2s1 [A123(e), (R)—N-(6-chlorobenzo[d]thiazol-2-yl)-4-(5-((R)-1,2-dihydroxyethyl)-3-fluoropyridin-2-yl)-2-methylpiperazine-1-carboxamide] | 11.5 ± 1.4 nM | 0.4 nM

The remaining molecules from weak to strong by IC50 (human TRPV1 [1]), led by results:

IC50 (human TRPV1 [1]) | IC50 (human TRPV1 [2]) | Structure (SMILES)
506 ± 155 nM | 1020 nM | C[C@@H](O)[C@H](O)c1cnc(N2CCN(C(=O)Nc3nc4ccccc4s3)C[C@@H]2C)c(F)c1 [B122(p), (S)—N-(benzo[d]thiazol-2-yl)-4-{5-[(1R,2R)-1,2-dihydroxypropyl]-3-fluoropyridin-2-yl}-3-methylpiperazine-1-carboxamide]
249 ± 34 nM | 1230 ± 595 nM | C[C@@H]1CN(C(=O)Nc2nc3cc(F)ccc3s2)CCN1c1ncc([C@@H](O)[C@@H](C)O)cc1F [B155(o), (R)-4-{5-[(1R,2R)-1,2-dihydroxypropyl]-3-fluoropyridin-2-yl}-N-(5-fluorobenzo[d]thiazol-2-yl)-3-methylpiperazine-1-carboxamide]
18.2 ± 2.9 nM | 0.4 nM | Cc1ccc2nc(NC(=O)N3CCN(c4ncc([C@@H](O)CO)cc4F)C[C@H]3C)sc2c1 [A126(e), (R)-4-(5-((R)-1,2-dihydroxyethyl)-3-fluoropyridin-2-yl)-2-methyl-N-(6-methylbenzo[d]thiazol-2-yl)piperazine-1-carboxamide]
